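96-well plates; 48 h exposure; 5 concentrations. Endpoints by linear interpolation between flanking doses. Not reached: highest tested concentration assigned. Here, GI50 denotes the concentration required for 50% inhibition of growth.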 Calls of active or inactive are those of the source. No stated cut-off is given here; in the data, active = GI50 up to about 1.1 µM and inactive = higher.
What was measured:
Assay in all cases: DTP human tumour cell line panel, 48 h
HCT-116 = tested on: HCT-116
CAKI-1 = tested on: CAKI-1
SR = tested on: SR
M14 = tested on: M14
A549 = tested on: A549
HOP-92 = tested on: HOP-92
SNB-19 = tested on: SNB-19
COLO 205 = tested on: COLO 205
NCI/ADR-RES = tested on: NCI/ADR-RES
SN12C = tested on: SN12C
HT-29 = tested on: HT-29
MOLT-4 = tested on: MOLT-4
KM12 = tested on: KM12
MDA-MB-231 = tested on: MDA-MB-231
TK-10 = tested on: TK-10
OVCAR-8 = tested on: OVCAR-8
EKVX = tested on: EKVX
UO-31 = tested on: UO-31
SK-MEL-2 = tested on: SK-MEL-2
A498 = tested on: A498

Measured: GI50

COc1nc(N)c(C#N)c(C#N)c1C#N
inactive: HCT-116 > 10 µM | CAKI-1 > 10 µM | SR > 10 µM | M14 > 10 µM | A549 > 10 µM | HOP-92 > 10 µM | SNB-19 > 10 µM | COLO 205 > 10 µM | NCI/ADR-RES > 10 µM | SN12C > 10 µM | HT-29 > 10 µM | MOLT-4 > 10 µM | KM12 > 10 µM | MDA-MB-231 > 10 µM | TK-10 > 10 µM | OVCAR-8 > 10 µM

OCC1OC(OCC(O)C(O)C(O)C(/C=N/Nc2ccccc2)=N/Nc2ccccc2)C(O)C(O)C1O (stereo unspecified)
inactive: EKVX > 100 µM | HCT-116 > 100 µM | CAKI-1 34.4 µM | SR > 100 µM | M14 > 100 µM | A549 > 100 µM | HOP-92 34.8 µM | SNB-19 > 100 µM | COLO 205 44.6 µM | NCI/ADR-RES > 100 µM | SN12C > 100 µM | HT-29 > 100 µM | UO-31 30.4 µM | MOLT-4 > 100 µM | KM12 > 100 µM | MDA-MB-231 > 100 µM | TK-10 > 100 µM | OVCAR-8 > 100 µM

c1ccc(CC2COC(c3cccs3)=N2)cc1 (stereo unspecified)
inactive: EKVX 66.2 µM | SK-MEL-2 43.8 µM | HCT-116 54.7 µM | CAKI-1 > 100 µM | SR 46.7 µM | M14 > 100 µM | A549 92.7 µM | HOP-92 21.4 µM | SNB-19 > 70.3 µM | COLO 205 > 100 µM | NCI/ADR-RES 48.5 µM | SN12C > 64.4 µM | HT-29 > 100 µM | UO-31 64.1 µM | MOLT-4 47.8 µM | KM12 > 89.3 µM | MDA-MB-231 > 72.6 µM | TK-10 > 90.2 µM | OVCAR-8 > 100 µM

CNC(=O)CNC(=O)CCC(=O)OC
inactive: SK-MEL-2 > 100 µM | HCT-116 > 100 µM | CAKI-1 > 100 µM | M14 > 100 µM | A498 > 100 µM | A549 > 100 µM | SNB-19 > 100 µM | COLO 205 > 100 µM | NCI/ADR-RES > 100 µM | SN12C > 100 µM | HT-29 > 100 µM | UO-31 > 100 µM | MOLT-4 > 100 µM | KM12 > 100 µM | MDA-MB-231 > 100 µM | TK-10 > 100 µM | OVCAR-8 > 100 µM

COC(=O)/C=C/N1CC1
inactive: EKVX > 10 µM | SK-MEL-2 > 10 µM | HCT-116 > 10 µM | CAKI-1 > 10 µM | SR > 10 µM | M14 > 10 µM | A549 > 10 µM | SNB-19 8.15 µM | COLO 205 2.19 µM | NCI/ADR-RES > 10 µM | SN12C > 10 µM | HT-29 3.28 µM | MOLT-4 > 10 µM | KM12 > 10 µM | MDA-MB-231 > 10 µM | TK-10 4.09 µM | OVCAR-8 > 10 µM

Fc1ccc2c3c([nH]c2c1)CCN(Cc1ccccc1)C3
inactive: EKVX 20.9 µM | HCT-116 18.6 µM | SR 18.3 µM | M14 17.3 µM | A498 17.8 µM | A549 22.6 µM | HOP-92 5.33 µM | SNB-19 16.6 µM | COLO 205 20.5 µM | NCI/ADR-RES 28.1 µM | SN12C 19.2 µM | HT-29 20.4 µM | UO-31 12.2 µM | MOLT-4 17.3 µM | KM12 15.3 µM | MDA-MB-231 24.3 µM | TK-10 > 10 µM | OVCAR-8 19.7 µM

CCOc1cc(C2CC(c3ccc(NS(=O)(=O)c4cc([N+](=O)[O-])ccc4C)cc3)=NN2c2ccc([N+](=O)[O-])cc2[N+](=O)[O-])ccc1O (stereo unspecified)
inactive: EKVX 4.71 µM | SK-MEL-2 19.5 µM | HCT-116 8.65 µM | CAKI-1 16.9 µM | SR 28.5 µM | M14 12.3 µM | A549 6.55 µM | HOP-92 10.4 µM | SNB-19 7.46 µM | COLO 205 17.7 µM | NCI/ADR-RES 8.04 µM | SN12C 3.15 µM | HT-29 41.6 µM | UO-31 14.6 µM | MOLT-4 23.3 µM | KM12 11 µM | MDA-MB-231 6.3 µM | TK-10 15.7 µM | OVCAR-8 5.22 µM

COc1cc(CN2CCCCC2)cc2cc(C(=O)O)c(=O)oc12
inactive: EKVX > 100 µM | SK-MEL-2 > 100 µM | HCT-116 > 100 µM | CAKI-1 > 100 µM | M14 > 100 µM | A498 > 100 µM | A549 > 100 µM | HOP-92 > 100 µM | SNB-19 > 100 µM | COLO 205 > 100 µM | NCI/ADR-RES > 100 µM | SN12C > 100 µM | HT-29 > 100 µM | UO-31 > 100 µM | MOLT-4 > 100 µM | KM12 > 100 µM | MDA-MB-231 > 100 µM | TK-10 > 100 µM | OVCAR-8 > 100 µM

Cc1ccc(O)c(/N=N\c2c(O)cc(S(=O)(=O)O)c3ccccc23)c1
inactive: EKVX 96.4 µM | SK-MEL-2 29.7 µM | HCT-116 25.5 µM | CAKI-1 63.4 µM | SR 17.8 µM | M14 24.6 µM | A549 54.6 µM | HOP-92 > 100 µM | COLO 205 67.6 µM | NCI/ADR-RES 24.3 µM | HT-29 61.5 µM | UO-31 17.3 µM | MOLT-4 26.5 µM | KM12 21.8 µM | MDA-MB-231 25.4 µM | TK-10 > 100 µM | OVCAR-8 26.2 µM

CCN(CC)S(=O)(=O)c1ccc2[nH]c(NC(=O)OC)nc2c1
inactive: EKVX > 100 µM | SK-MEL-2 > 100 µM | HCT-116 37.4 µM | CAKI-1 > 100 µM | SR 28.9 µM | M14 47.6 µM | A549 94.6 µM | HOP-92 30.1 µM | SNB-19 70.5 µM | COLO 205 96.8 µM | NCI/ADR-RES > 100 µM | SN12C > 100 µM | HT-29 40.9 µM | UO-31 46.3 µM | MOLT-4 20.4 µM | KM12 36.9 µM | MDA-MB-231 > 100 µM | TK-10 6.47 µM | OVCAR-8 45.1 µM

Oc1c(Cl)c(Cl)c(O)c(CCNc2nccs2)c1Cl
inactive: EKVX 14.3 µM | SK-MEL-2 22.3 µM | HCT-116 7.66 µM | CAKI-1 11.4 µM | SR 4.81 µM | M14 15.7 µM | A549 21.6 µM | HOP-92 32.4 µM | SNB-19 17 µM | COLO 205 11.3 µM | NCI/ADR-RES 19.6 µM | SN12C 19 µM | HT-29 17.9 µM | UO-31 16.4 µM | MOLT-4 48.8 µM | KM12 6.85 µM | TK-10 11.7 µM | OVCAR-8 16.6 µM
active: MDA-MB-231 0.119 µM

Cc1ccc2ccccc2c1NC1=NCCO1
inactive: EKVX > 100 µM | HCT-116 45.5 µM | SR 34.2 µM | M14 > 100 µM | A549 > 100 µM | HOP-92 11.8 µM | SNB-19 27.2 µM | COLO 205 > 100 µM | NCI/ADR-RES > 100 µM | SN12C > 100 µM | HT-29 83 µM | UO-31 27.7 µM | MOLT-4 34 µM | KM12 75.3 µM | MDA-MB-231 > 100 µM | TK-10 > 100 µM | OVCAR-8 > 100 µM

CCOC(=O)CCC(NC(=O)c1ccc(Nc2nc3ccc(C(F)(F)F)cc3nc2-c2ccccc2)cc1)C(=O)OCC (stereo unspecified)
inactive: EKVX > 100 µM | SK-MEL-2 19.1 µM | HCT-116 > 100 µM | CAKI-1 > 100 µM | SR 33.9 µM | M14 19.7 µM | A549 > 100 µM | HOP-92 23.9 µM | SNB-19 > 100 µM | COLO 205 16.2 µM | NCI/ADR-RES > 100 µM | SN12C > 100 µM | HT-29 > 100 µM | UO-31 31.5 µM | MOLT-4 22.1 µM | KM12 > 94 µM | MDA-MB-231 21.6 µM | TK-10 > 100 µM | OVCAR-8 > 100 µM

CC(=O)CC1(C)OC(N)=C(C#N)C1(C#N)C#N (stereo unspecified)
inactive: EKVX > 100 µM | SK-MEL-2 > 100 µM | HCT-116 71.6 µM | CAKI-1 59.4 µM | M14 > 100 µM | A498 > 100 µM | A549 > 100 µM | HOP-92 74.6 µM | SNB-19 > 100 µM | COLO 205 45.9 µM | NCI/ADR-RES > 100 µM | SN12C > 100 µM | HT-29 88.9 µM | UO-31 > 100 µM | KM12 > 100 µM | MDA-MB-231 > 100 µM | TK-10 > 100 µM | OVCAR-8 > 100 µM

CCCCCC(/C=C/[C@@H]1[C@@H](C(O)CCCCCC(=O)OC)C(=O)C[C@H]1O[Si](C)(C)C(C)(C)C)OCOCCOC (stereo partly specified)
inactive: EKVX 18.8 µM | SK-MEL-2 17 µM | HCT-116 4.37 µM | CAKI-1 17.2 µM | M14 13.8 µM | A498 20 µM | A549 24.6 µM | HOP-92 21 µM | SNB-19 15.3 µM | COLO 205 18.9 µM | NCI/ADR-RES 18.9 µM | SN12C 19.7 µM | HT-29 6.7 µM | UO-31 15.6 µM | MOLT-4 1.73 µM | KM12 6.62 µM | MDA-MB-231 21.7 µM | TK-10 16.6 µM | OVCAR-8 16.5 µM

— ChEMBL document CHEMBL1201862, “PubChem BioAssay data set” (2004)
